We go through three compounds from patent US20060204981A1, “Compositions for modulation of PARP and methods for screening for same” (priority 2005, published 2006).

Read-outs that look alike come from different tables or passages of the source. Where only a bound is given, the exact number is not on record here.

Series [1] has as its system HeLa cells. Description: MTT cell death assay, HeLa cells. The series is classed as cell-based. Particulars: for cell survival percentage: MTT (FIG. 1). On the procedure:
(§1) Cell death was determined by the 3-(4,5-dimethylthiazol-2-yl)-2,5-diphenyl tetrazolium bromide (MTT) assay or by trypan blue exclusion, as indicated. Briefly, HeLa and DLD1 cells were plated in a 96-well plate at 10,000 cells per well, cultured for 24 h in complete growth medium, then treated with various concentrations of β-lapachone for 4 h MTT was added to a final concentration of 0.5 mg/ml, and incubated for 1 hr, followed by assessment of cell viability using a microplate reader at 570 nm. For the trypan blue exclusion assay, HeLa and DLD1 cells were plated in 6-well plate and treated in the same way. They were harvested, and trypan blue dye solution was added to the cell suspension. Total cell counts and viable cell numbers were determined with a hemacytometer. For the PARP inhibition study, cells were […] for 1 h with the PARP inhibitor 3-aminobenzamide (3-AB, 5 mM), and then co-treated with inhibitor and β-lapachone for a further 4 h, followed by MTT assay or trypan blue staining. […] HeLa and DLD1 cells were plated in 96-well plates at 10,000 cells per well, cultured for 24 h in complete growth medium, pretreated with PARP inhibitor 3-AB […] or equal volume of DMSO for 1 h, and then exposed to β-lapachone at various concentrations for a further 4 h, followed by MTT assay.

In a further series the test system is DLD1 cells. Description: MTT cell death assay, DLD1 cells. The series is classed as cell-based, human. On the procedure:
as §1

For another series, the system named is MCF7 cells. Description: NAD+ supplementation experiment, MTT assay. The class given is cell-based. Conditions: Homo sapiens, 4 h, MTT (FIG. 8), read-out: IC50 (cytotoxicity). On the procedure:
For NAD^+ supplementation experiment, MCF7 cells were plated in 96-well plates at a density of 10,000 cells per well. Sixteen to eighteen hours later cells were pre-treated with […] 3-aminobenzamide, 10 mM NAD+, or vehicle control (all treatments in formulated in growth media: DMEM with 10% fetal bovine serum) for 1 hour at 37° C. Following this incubation, cells (under each pre-incubation treatment) were treated with β-lapachone at indicated concentrations for 4 hours at 37° C. An MTT assay was then performed as described above.

Series [2] concerns HeLa cells. Description: NAD depletion assay. The class given is cell-based. As for the experimental part:
HeLa cells were plated at 6×10^5 cells per well (35 mm, 6-well dishes). Eighteen hours after plating, cells were treated with β-lapachone (0, 2, 4 or 8 μM) in growth media (DMEM; 10% FBS) for the time periods indicated (15, 30 and 60 minutes). Following drug treatment cells were washed 2× with PBS. Cells were subsequently lysed in 200 μL NAD lysis buffer (61 mM glycyl-glycine, pH 7.4, 0.1% Triton-X-100). Cellular lysates were clarified by centrifugation at 16,000 g for 10 minutes. Aliquots of clarified lysates were transferred to 96-well plates (25 μL samples in triplicate) for to determine NAD^+ concentrations.
Determination of lysate NAD levels was performed using a modification of the NAD recycling assay described by Ying et al. (PNAS, 98(21):12227-32 (2001)). Briefly, the NAD reaction mixture consisted of 0.1 mM 3-[4,5-dimethylthiazol-2-yl]-2,5-diphenyl-tetrazolium bromide (MTT), 0.9 mM phenazine methosulfate, 13 units/ml alcohol dehydrogenase (from yeast extract, Sigma), 100 mM nicotinamide, and 5.7% ethanol in 61 mM Gly-Gly buffer (pH 7.4). To each aliquot of cellular lysate, 200 μL of reaction mixture was added. Absorbance readings (560 nm) were taken every minute for five minutes. Results were calibrated with NAD^+ standards and were subsequently normalized to protein concentration as determined using the Bio-Rad protein Assay.

The subject of series [3] is PARP. Description: Immunofluorescence analysis with anti-poly(ADP-ribose) antibody, HeLa cells. The class given is cell-based.
Procedure: HeLa and DLD1 cells were grown on coverslips for PARP activity experiments. Cells treated with 4 uM β-lapachone at different time points and fixed with methanol acetone (70/30, v/v) for 10 min at −20° C. Coverslips were air dried and rehydrated in PBS at room temperature for 10 min. Samples were than incubated in blocking buffer (PBS, 5% FBS) for 10 minutes at room temperature in a humid chamber. Cells were incubated overnight at 4° C. with monoclonal anti-poly(ADP-ribose) antibody (I OH, 1:100 dilution). After washing, the cells were incubated for 1 hr at room temperature with a 1:500 dilution of FITC conjugated anti-mouse antibody. For the PARP inhibition study, cells pre-teated for 1 h with the PARP inhibitor 3-aminobenzamide (3-AB, 5 mM), and then co-treated with inhibitor and β-lapachone for a further 10 minutes followed by immunofluorescence staining. Immunofluorescence was evaluated using an immunofluorescence microscope equipped with a CCD camera.
HeLa cells were grown on coverslips for 24 h, then treated with 4 μM β-lapachone at different time points and fixed with methanol acetone (70/30, v/v) for 10 min. Samples were incubated in blocking buffer (5% FBS in PBS) for 10 minutes at room temperature in a humid chamber. […] Immunofluorescence was evaluated using an immunofluorescence microscope equipped with a CCD camera. […]
Series [4] concerns PARP. Description: PARP activity assay in cell lysate. The class given is biochemical, human. Conditions: various β-lapachone concentrations vs 0 μM control, dose-dependent (FIG. 9). As for the experimental part:
A cell extract was generated by scraping a 15 cm (˜80% confluent) dish of MCF7 cells into 1.5 ml of PARP buffer (50 mM Tris pH 8.0, 25 mM MgCl2) containing protease inhibitors. The cell suspension was sonicated at 30% amplitude with 3×10 second bursts on ice. The cell lysate was subsequently clarified by centrifugation at 16,000 g for 10 minutes at 4° C. Any remaining insoluble material was removed by passing the clarified lysate through a 5 ml syringe containing a cotton pad-filter. The protein concentration of extracts was typically between […]. PARP in vitro activity was determined using a modification of the PARP in vitro assay from TREVIGEN™. Reactions were comprised of the following: ˜60 μg of cellular protein, 100 μM NAD, 10 μg of histone H1, β-lapachone (at various concentrations) or DMSO control, 25 mM MgCl2, 50 mM Tris-Cl pH 8.0. Reactions were incubated for 10 minutes at room temperature and terminated by the addition of 900 μL of cold 25% trichloroacetic acid. Terminated reactions were incubated on ice for 10 minutes. TCA-precipitated proteins were isolated by passing reaction over glass-fiber filters under vacuum. Filters were subsequently washed three times with 5 ml of 5% TCA followed by 2 washes with cold ethanol. […] The amount of ^32P labeled NAD incorporated into polyribosylated proteins was then determined by liquid scintillation measurement.

Series [5] relates to E2F1 tet-inducible DLD1 cells. Description: Apoptosis in E2F1 tet-inducible DLD1 cells. The class given is cell-based. An excerpt: To investigate E2F1 induced apoptosis, an inducible system was established. Human colon cancer cell lines harboring a mutated p53 gene were used to generate E2F1-inducible cell lines (Rodrigues, et al., PNAS, 87:7555-9 (1990)). […] Under the tetracycline induction conditions, a significant percentage of DLD1 cells undergoing apoptosis were detected at a given time point (10% at day 3; 15% at day 4) as determined by propidium iodide (PI) staining and flow cytometry (FIG. 10B). The apoptosis was further confirmed by assaying morphological changes following expression of E2F1 (FIG. 10C). Similar data was obtained in E2F1-inducible SW480 human colon cancer cells. In addition to proapoptotic function, E2F1 is a necessary transcription factor for cell proliferation (Johnson, D. et al., Nature 365:349-52 (1993); Wu, L. et al. Nature 414:457-62 (2001)). Under these experimental conditions, no significant changes in overall cell cycle distribution were observed.
To further investigate the mechanism of E2F1-induced apoptosis, the role of caspase activation was investigated. Two forms of caspase-3, procaspase and cleaved caspase were detected by western blot analysis. […] Further, it was determined if E2F1-induced, p53 independent apoptosis was affected by inhibiting caspase function with a pancaspase inhibitor. Apoptosis induced by camptothecin, a known caspase-3 activator, was used as a positive control.
Activation of PARP-1 has been implicated in caspase independent apoptosis. It was investigated whether E2F1 induced cell death involved PARP-1 activation. Poly ADP ribosylation (PAR), the functional indicator of PARP-1 activation, was detected by immunoblot with a specific anti-PAR antibody. […] Immunocytochemical staining of PAR further conformed the activity of PARP-1 (FIG. 11B). The nuclear PAR stain was increased after expression of E2F1 for 24 h and reached a plateau at 48 h. To determine if poly ADP ribosylation plays a causal role in E2F1 induced apoptosis, 3′-aminobenzamide (3′-AB), a universal inhibitor of PARP activity, was used.
Protein poly ADP ribosylation is catalysed by members of the poly (ADP-ribose) polymerase family that consists of 18 genes (Amé, J. C., et al., Bioessays 26:882-93 (2004)). The PARP-1 protein is the dominant member in most cells, which contributes the majority of overall poly ADP ribosylation induced by DNA damage (Davidovic, L. et al., Exp Cell Res 268:7-13 (2001)). To distinguish which member of the PARP family was involved in E2F1-induced apoptosis, siRNA technology was utilized to reduce PARP-1 protein levels. A chemically synthesized PARP-1 siRNA pool was electroporated into the DLD1-E2F1 inducible cell line. The PARP-1 protein began to decrease at day 2 and reached the lowest levels at day 4 and gradually recovered from day 6 as shown by western blot (FIG. 12A) and immunocytochemical staining. […] The E2F1-induced apoptosis was compromised following PARP-1 knockdown (P<0.001) (FIG. 12C).

As for `CC1(C)CCC2=C(O1)c1ccccc1C(=O)C2=O` [β-lapachone, 3,4-dihydro-2,2-dimethyl-2H-naphtho [1,2-b]pyran-5,6-dione], the cell survival percentage is roughly 60% in the series on HeLa cells [1] (HeLa cells, pretreated 1 h with PARP inhibitor 3-AB, then β-lapachone for 4 h); “approximately 5%” with HeLa cells [1] (HeLa cells, β-lapachone for 4 h without 3-AB); “approximately 75%” with DLD1 cells (pretreated 1 h with PARP inhibitor 3-AB, then β-lapachone for 4 h, MTT (FIG. 1)). The IC50 with HeLa cells [1] (Homo sapiens, HeLa, cytotoxicity IC50 quoted in the NAD+ depletion example, cell line not given) was roughly 2800 nM; in the series on MCF7 cells (control (no NAD+ supplementation)), roughly 2.7 µM; with MCF7 cells (exogenous NAD+ supplementation (10 mM, 1 h pre-treatment)) it was roughly 6.6 µM. Further, the “cellular NAD+ levels” value with HeLa cells [2] (8 μM β-lapachone, within 15 minutes (FIG. 7)) is ~20 % of control; with HeLa cells [2] (β-lapachone concentrations in excess of the IC50, by 30 minutes (FIG. 7)), “less than 50 % of control”. Further, in the series with PARP [3] (4 μM β-lapachone, 5 minutes to 2 hours (FIG. 4)), the “activation of PARP (anti-poly(ADP-ribose) fluorescence)” value is “increases fluorescence”. Also, the “PARP activity in cellular lysate” value in the series on PARP [4] is recorded as “induces enhancement of PARP activity above the basal level”.

As to `NC(=O)c1cccc(N)c1` [3-aminobenzamide], the “effect on β-lapachone-induced cell death” value in the series on HeLa cells [1] (HeLa cells, 3-AB pretreatment 1 h, MTT) is listed as “blocked”; with DLD1 cells (3-AB pretreatment 1 h, MTT) it was “blocked”. Besides, in the series on HeLa cells [2] (data not shown), the “effect on β-lapachone-mediated NAD+ depletion” value is given as “inhibited”. Besides, the “effect on β-lapachone induced activation of PARP” value with PARP [3] (5 mM 3-AB 1 h, then 4 μM β-lapachone 10 minutes (FIG. 5)) is given as “blocked”. For the same compound, the “effect on apoptosis of addition alone” value in series [5] (3′-AB alone vs control group) is “no effect on apoptosis”. Also, in series [5] (Homo sapiens, DLD-1, read-out: inhibition of E2F1 induced apoptosis), the inhibition at 5000 µM is greater than 70%.

On to Z-VAD, for which the “cytotoxic effects of addition alone” value in series [5] (Z-VAD alone) is listed as “no cytotoxic effects”. For the same compound, in series [5] (Z-VAD at 50 μM (FIG. 10F)), the “effect on camptothecin-induced apoptosis” value is on record as “blocked”. For the same compound, in series [5] (Z-VAD at 50 μM, tetracycline induction (FIG. 10F)), the “effect on E2F1-induced apoptosis” value was “failed to block”.
